Data published in paper PMC11984905, “Chiral Switch of Gadopiclenol: New Standards in MRI Probes” (Advanced Science, 2025).

Assay: Kinetic inertness: dissociation of Gd(III)-complexes in 0.01–1.0 M HCl followed by HPLC
Format: physicochemical
Conditions: for k d at pH = 7.4: dissociation rate calculated at pH 7.4, 25 °C; for k1: proton-assisted dissociation, 25 °C, [H+]≤0.15 M: [Na+]+[H+]=0.15 M; for acid-catalyzed dissociation, times slower than Gd(III)-complex with BT-DO3A / acid-catalyzed dissociation, times slower than Gd(III)-complex with HP-DO3A: ratio of k1
Excerpt: The kinetic inertness of the Gd(III)‐complexes with the different isomers formed by rac‐L1 and rac‐L2 was characterized by the rates of the dissociation reactions taking place in 0.01–1.0 M HCl solution. The dissociation reactions were followed by measuring the integral values of the Gd(III)‐complexes with the different isomers of rac‐L1 and rac‐L2 ligands with HPLC. The conditions of the HPLC experiments for the kinetic studies of the Gd(III)‐complexes with rac‐L1 and rac‐L2 ligands are summarized in Tables S1 and S2 (Supporting Information), respectively. The samples were kept at 25 °C in a well‐closed vessel. For the HPLC analysis, 100 µL samples were withdrawn from the solutions. The measurements were performed with 0.2 mM solution of Gd(III)‐complexes. The pseudo‐first‐order rate constants (k d) were calculated by fitting the HPLC integral – t data pairs to Equation (1). (1) At=Ar−Ave^−kdt+Av where A r, A v, and A t are the integral values of the reactants, the product, and reaction time t. The temperature was maintained at 25 °C and the ionic strength of the solutions was kept constant at [H^+]≤0.15 M, [HCl]+[NaCl] = 0.15 M. The calculation of the kinetic parameters was performed by the fitting of the absorbance – time and relaxation rate – time data pairs with the Micromath Scientist computer program (version 2.0, Salt Lake City, UT, USA).
The dissociation reactions of Gd(III)-complexes with the different isomers formed by rac-L1 and rac-L2 have been studied by HPLC method (Tables S1 and S2) at 25 °C in 0.01 – 1.0 M HCl solution to guarantee the pseudo-first-order kinetic condition. Area values as a function of time for the dissociation reactions of Gd(III)-complexes formed with the different stereoisomers of rac-L1 obtained at 25 °C in 1.0 M HCl solution are shown in Figure S48.
In the presence of HCl excess, the decomplexation of Gd(III)-complexes can be treated as a pseudo-first-order process and the reaction rate can be expressed by Equation (S9), where kd is a pseudo-first-order rate constant, [GdL]t and [GdL]tot are the concentrations of the GdL species at time t and the total concentration of the complex, respectively.
The rates of the dissociation reactions have been studied at different concentrations of HCl ([HCl]=0.01 – 1.0 M, 25 °C). The kd values obtained for the Gd(III)-complexes with the different isomers of rac-L1 and rac-L2 ligands as a function of [H^+] are shown in Figures S49 and S50.
The obtained kd pseudo-first order rate constants are directly proportional to the concentration of H^+. The increase in the kd values with increasing concentration of H^+ can be interpreted in terms of the proton assisted dissociation of Gd(III)-complexes. […] The proton assisted dissociation of Gd(III)-complexes might be explained by the equilibrium formation of a protonated *Gd(HL) intermediate (Equation (S11)), which dissociates spontaneously (Equation (12)).
where k0, and k1 = kGdHL×K^HGdHL are the rate constants characterizing the spontaneous and proton-assisted dissociation of Gd(III)-complexes. The protonation constant (K^HGdHL) of Gd(DOTA)-like complexes are very small (Gd(DOTA): K^HGdHL =14).^[22] By considering very low protonation constant of Gd(III)-complexes with A, C and D isomers of rac-L1 and A’, C’ and D’ isomers of rac-L2 ligands (K^HGdHL<<10), the denominator of Equation (S14) (1>> K^HGdHL [H^+]) can be neglected, so Equation (S14) can be simplified in the form of Equation (S15). The k0 and k1 values of the Gd(III) complexes with A, C and D isomers of rac-L1, and A’, C’ and D’ isomers of rac-L2 ligands have been calculated by fitting of the kinetic data (Figures S49 and S50) to Equation (S15).
The k1 rate and logK^HGdHL protonation constants characterizing the acid-catalyzed decomplexation of Gd(III)-complexes formed with the different stereoisomers of rac-L1 and rac-L2 are presented and compared with those of [Gd(PCTA)], [Gd(DOTA)]^-, [Gd(HP-DO3A)] and [Gd(BT-DO3A)] in Table S19.

| SMILES | k d at pH = 7.4 (listed as RRR/SSS (C)) | k d at pH = 7.4 (listed as [Gd(rac-L1)] C (RRR/SSS)) | k1 | k d at pH = 7.4 (listed as RRR/SSS (D′)) | k d at pH = 7.4 (listed as [Gd(rac-L2)] D’ (RRR/SSS)) | acid-catalyzed dissociation, times slower than Gd(III)-complex with BT-DO3A | acid-catalyzed dissociation, times slower than Gd(III)-complex with HP-DO3A |
| --- | --- | --- | --- | --- | --- | --- | --- |
| O=C([O-])CCC(C(=O)[O-])N1CCN(C(CCC(=O)[O-])C(=O)[O-])Cc2cccc(n2)CN(C(CCC(=O)[O-])C(=O)[O-])CC1.[Gd+3] (racemic) [[Gd(ent‐L1)]^3−] | RRR/SSS (C): 5.61 × 10^−14 s^−1 | 5.61×10^-14 s^−1 | (1.4±0.1) ×10^-6 M^-1s^-1 |  |  |  |  |
| O=C(CCC(C(=O)[O-])N1CCN(C(CCC(=O)NCC(O)CO)C(=O)[O-])Cc2cccc(n2)CN(C(CCC(=O)NCC(O)CO)C(=O)[O-])CC1)NCC(O)CO.[Gd+3] (stereo not drawn) [[Gd(ent‐L2)]] |  |  | (4.4±0.2) ×10^-6 M^-1s^-1 | RRR/SSS (D′): 1.74 × 10^−13 s^−1 | 1.74×10^-13 s^−1 |  |  |
| O=C(CCC(C(=O)O)N1CCN(C(CCC(=O)NCC(O)CO)C(=O)O)Cc2cccc(n2)CN(C(CCC(=O)NCC(O)CO)C(=O)O)CC1)NCC(O)CO (stereo not drawn) [ent‐L2] |  |  |  |  |  | 7 times | 66 times |
| O=C(O)CCC(C(=O)O)N1CCN(C(CCC(=O)O)C(=O)O)Cc2cccc(n2)CN(C(CCC(=O)O)C(=O)O)CC1 (stereo not drawn) [ent‐L1] |  |  |  |  |  | 24 times | 207 times |
